Two compounds from US20160002204A1 (Board of Regents, The University of Texas System, priority 2014, published 2016) can be followed below.

Each structure is given as a SMILES string.

The target of assay [1] is T1, GLS1 (purified recombinant human GAC) (Homo sapiens, UniProt O94925).
T1 sequence (O94925 55-598 isoform O94925-3 limits assumed): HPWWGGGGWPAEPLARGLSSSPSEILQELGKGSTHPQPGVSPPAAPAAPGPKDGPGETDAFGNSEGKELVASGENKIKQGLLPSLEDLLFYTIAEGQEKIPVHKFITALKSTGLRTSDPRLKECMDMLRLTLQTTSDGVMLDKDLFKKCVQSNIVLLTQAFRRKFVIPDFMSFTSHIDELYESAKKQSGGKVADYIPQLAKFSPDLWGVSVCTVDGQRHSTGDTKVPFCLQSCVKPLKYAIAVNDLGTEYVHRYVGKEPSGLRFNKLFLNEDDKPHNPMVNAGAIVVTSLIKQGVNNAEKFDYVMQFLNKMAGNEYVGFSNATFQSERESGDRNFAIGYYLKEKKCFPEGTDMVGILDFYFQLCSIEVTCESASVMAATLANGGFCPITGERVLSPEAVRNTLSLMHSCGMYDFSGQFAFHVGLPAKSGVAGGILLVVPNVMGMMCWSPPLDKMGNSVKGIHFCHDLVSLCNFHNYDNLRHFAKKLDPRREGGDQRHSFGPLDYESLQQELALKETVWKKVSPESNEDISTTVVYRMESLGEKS
Put plainly: GLS1 enzymatic activity assay (dual-coupled, Amplex UltraRed/resorufin). In kind it is biochemical. The essentials: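 GAC activity measured by coupling glutamate to glutamate oxidase and HRP, generating resorufin from Amplex UltraRed. Enzyme (2 nM) preincubated with 50 mM potassium phosphate 10 min at room temperature, then inhibitor 10 min; 1 mM glutamine substrate, 1% DMSO. Fluorescence 530/590 nm, kinetic or 20-min endpoint; IC50 from four-parameter logistic fit.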

Another assay deals with A549 cells. The assay can be described thus: A549 proliferation (viability) assay, Cell Titer Fluor, 72 hours. In kind it is cell-based. To be noted: Homo sapiens. The gist of the method:
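Seed A549 at 1000 cells/well and culture 24 h. Add compound (final DMSO 0.5%) and incubate 72 h at 37 °C. Add Cell Titer Fluor, mix 15 min, incubate 30 min, read fluorescence and fit EC50 by four-parameter logistic.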

As to `O=C(Cc1ccccn1)Nc1nnc(CCCCn2ccc(NC(=O)CC3CCCC3)c(F)c2=O)s1` [Example 504, 2-cyclopentyl-N-[3-fluoro-2-oxo-1-(4-{5-[2-(pyridin-2-yl)acetamido]-1,3,4-thiadiazol-2-yl}butyl)-1,2-dihydropyridin-4-yl]acetamide], the IC50 in assay [1] was less than 100 nM. Besides, the EC50 in the assay on A549 cells was in the range of 100 to 500 nM.

For the compound `CC(=O)Nc1nnc(CCCCn2ccc(NC(=O)CC3CCCC3)c(F)c2=O)s1` [Example 505, 2-cyclopentyl-N-{1-[4-(5-acetamido-1,3,4-thiadiazol-2-yl)butyl]-3-fluoro-2-oxo-1,2-dihydropyridin-4-yl}acetamide], the half-inhibitory concentration (IC50) in assay [1] was less than 100 nM. The EC50 with A549 cells lay within 500 to 5000 nM.

What is called IC50 is the concentration that gives 50% inhibition. The term EC50 denotes the concentration giving half of the maximal effect. Lower therefore signals higher potency in that assay.
